Measurements as given in EP0362382A1, “METHOD OF STERILIZING PLANT POLLEN” (VSESOJUZNY NAUCHNO-ISSLEDOVATELSKY INST. SELSKOKHOZYAISTV. …, priority 1988, dated 1989).

Tests used:
[1] = test system: Tritikale; assay: Field test of gametocidal activity (sterilisation of anthers), triticale; assay type: in vivo; conditions: V. Periode der Organogenese, 1,5%ige wäßrige Emulsion
Excerpt: (§1) Die gametozide Aktivitat der erfindungsgemäßen Sterilisationsmittel war im Feldversuch in verschiedenen bodenklimatischen Zonen mit Teilstücken von 10 m^2 Größe in drei- bis viermaliger Wiederholung festgestellt. Jedes Sterilisationsmittel wurde mindenstens 5 Jahre lang geprüft.
(§2) Die Entwicklung der Perioden der Organogenese wird zytologisch überwacht. Die Behandlung von Pflanzen mit dem Sterilisationsmittel erfolgt am Anfang der fünften Periode der Organogenese nach Kupermann.
Mit dem Ährenschieben verwirklicht man die Isolierung von Hauptähren und anderen Stockwerken in Pergamentbeuteln. Bei Weizen und Tritikale werden Einzelisolatoren benutzt. Bei Roggen schließt man je Ähre 5 bis 7 verschiedene nebeneinander befindliche Pflanzen unter einen gemeinsamen Isolator ein. Bei Hierse wird jede Rispe getrennt isoliert. Der Sterilitätsprozentsatz (X) für Weizen, Roggen, Tritikale und Hirse wird nach der Formel [formula] ermittelt.
Die Kornzahl in nicht isolierten Ähren von Kontrollpflanzen wird bedingt für 100 % Ansetzen bei freier Bestäubung angenommen.
Um zuverlässige Angaben zu erhalten, verwendet man 20 bis 25 Isolatoren jeder Wiederholung für Weizen und Tritikale, 10 .bis 15 Isolatoren jeder Wiederholung für Roggen und Hirse.
Pflanzen von Tritikale PRAG 109 werden in der V. Periode der Organogenese (nach Kupermann) mit 1,5%iger wäßriger Emulsion von Bis(di-n-butyläther) der δ, δ' -Thiodivaleriansäure, 4-Kaxboxybutyldezylsulfid, Bis(2-Äthylhexyläther) der δ, δ' -Thiodivaleriansäure behandelt. Die Emulsion enthält 0,1 Masse% Kalziumalkylbenzolsulfonat mit 12 bis 14 Kohlenstoffatomen und 0,01 Masse% Tetrahydrofuran. Der Verbrauch an Präparat beträgt 15 kg/ha. Als Kontrolle dienen Pflanzen, behandelt mit einem Verdünner ohne Sterilisationsmittel. Die Prüfergebnisse sind in der Tabelle 12 angegeben. […] Periode der Organogenese erhalten.
Pflanzen von Tritikale der Sorte Amphidiploid 206 werden in der V. Periode der Organogenese (nach Kupermann) mit 1,5%iger wäßriger Emulsion von Natriumsalz der δ, δ'-Thiodivaleriansäure, δ, δ' -Sulfonyldivaleriansäure Kaliumsalz der d , δ' -Sulfonyldivaleriansäure behandelt. Die Emulsion enthalt 0,1 Masse% Kalziumalkylbenzolsulfonat mit 12 bis 14 Kohlenstoffatomen und 0,01 Masse% Dodezylsulfat. Der Verbrauch an Präparat beträgt 9 kg/ha. Als Kontrolle dienen Pflanzen, behandelt mit einem Verdünner ohne Sterilisationsmittel. Die Prüfergebnisse sind in der Tabelle 13 angegeben. […] Periode der Organogenese erhalten.

[2] = test system: Sonnenblume; assay: Field test of chemical sterilisation of sunflower pollen; assay type: in vivo; conditions: V. Periode der Organogenese
Excerpt: as §1, §2
Zur Kontrolle der chemischen Sterilisation des Sonnenblumenpollens werden für jede Verbindung 45 behandelte Pflanzen jeder Wiederholung benutzt, wobei 15 Pflanzen von denen zwecks Selbsbestäubung isoliert werden, Blütenkorbchen anderer 15 Pflanzen mit einem Pollengemisch, gesammelt von 20 bis 25 behandelten isolierten Körbchen, bestäubt werden, und 15 Pflanzen für freie Bestäubung gelassen werden, damit das Ansetzen von Achänen mit dem Pollen der väterlichen Form kontrolliert werden kann.
Man beurteilt die Pollensterilität von Pflanzen der Sonnenblume nach der Pollenfertilität und -keimfähigkeit, nach den morphologischen Besonderheiten von Spermien und nach der Fähigkeit von Achänen zum Ansetzen bei der Bestäubung der behandelten isolierten Pflanzen mit dem Pollen der unbehandelten väterlichen Form. Die Lebensfähigkeit der Eizelle wird nach der Samenbildung von behandelten Pflanzen bei freier Bestäubung mit der väterlichen Form bestimmt.
Man behandelt die Sonnenblume Sorte BHNNMK 8931 (WNIIMK 8931) in der V. Periode der Organogenese mit 0,5%iger wäßriger Emulsion von 4-Karboxybutyldezylsulfid, mit 1%iger Emulsion der δ, δ' -Sulfonyldivaleriansäure, 2%iger Emulsion von Bis(2-äthylhexyläther) der δ, δ' -Thiodivaleriansäure; die Sonnenblume der Linie BK-373 (WK-373) mit 2%iger Emulsion von Bis(2-äthylhexyläther) der δ δ' --Thiodivaleriansäure, mit 0,2%iger Emulsion von Bis(di--n-butyläther) der δ, δ' -Thiodivaleriansäure; die Sonnenblume der Linie BK=364 (WK-365) mit 2%iger wäßriger Emulsion von Bis(2-äthylhexyläther) der δ, δ' -Thirodivaleriansäure, mit 0,2%iger Emulsion von Bis(di-n-butyläther) der δ, δ' -Thiodivaleriansäure. Die Emulsion enthält 0,1 Masse% Kalziumalkylbenzolsulfonat mit 12 bis 14 Kohlenstoffatomen und 0,01 Masse% Dimethylsulfoxid. Als Kontrolle dienen Pflanzen, behandelt mit einem Verdünner ohne Sterilisationsmittel. Die Prüfergebnisse sind in der Tabelle 17 angegeben. […] Periode der Organogenese erhalten.

[3] = Toxicity in animal test; conditions: rat, in vivo; für Ratten
Method: Alle erfindungsgemäßen Thiokarbonsäuren oder ihre De- rivate, die als Sterilisationsmittel zur Verwendung kommen, waren auf die Toxizität im Tierversuch geprüft. Die Prüfergebnisse haben gezeigt, daß die angegebenen Verbindungen von schwacher oder mittlerer Toxizität sind. So beträgt beispielsweise LD50 mehr als 2000 mg/kg für Ratten bei Bis (2-äthylhexyläther) der δ, δ'-Thiodivaleriansäure, bei anderen Verbindungen liegen die LD50 -Werte auf dem gleichen Niveau.

[4] = Sorte Amphidiploid 206, 9 kg/ha
[5] = Sorte ВНИИМК 8931 (WNIIMK 8931), Beispiel 75: 0,5%ige, 76: 1%ige, 77: 2%ige Emulsion
[6] = Linie BK-373 (WK-373), Beispiel 78: 2%ige, 79: 0,2%ige Emulsion
[7] = Linie BK-364 (WK-364), Beispiel 80: 2%ige, 81: 0,2%ige Emulsion

SMILES: CCCCOC(=O)CCCCSCCCCC(=O)OCCCC [Beispiel 59, Bis(di-n-butyläther) der δ, δ' -Thiodivaleriansäure]
- Anzahl von Körnern der Ähre bei freier Bestäubung ([1]; PRAG 109, 15 kg/ha): 40,1
- Anzahl von Körnern der Ähre im Isolator ([1]; PRAG 109, 15 kg/ha): 0,3
- Prozentsatz der Sterilität ([1]; PRAG 109, 15 kg/ha): 99,3%
- Prozentsatz des Ansetzens von Körnern bei freier Bestäubung ([1]; PRAG 109, 15 kg/ha): 87,6%

SMILES: CCCCCCCCCCSCCCCC(=O)O [Beispiel 60, 4-Kaxboxybutyldezylsulfid]
- Anzahl von Körnern der Ähre bei freier Bestäubung ([1]; PRAG 109, 15 kg/ha): 42,3
- Anzahl von Körnern der Ähre im Isolator ([1]; PRAG 109, 15 kg/ha): 0,0
- Prozentsatz der Sterilität ([1]; PRAG 109, 15 kg/ha): 100,0%
- Prozentsatz des Ansetzens von Körnern bei freier Bestäubung ([1]; PRAG 109, 15 kg/ha): 92,4%

SMILES: CCCCC(CC)COC(=O)CCCCSCCCCC(=O)OCC(CC)CCCC (stereo not drawn) [Beispiel 61, Bis(2-Äthylhexyläther) der δ, δ' -Thiodivaleriansäure]
- Anzahl von Körnern der Ähre bei freier Bestäubung ([1]; PRAG 109, 15 kg/ha): 40,8
- Anzahl von Körnern der Ähre im Isolator ([1]; PRAG 109, 15 kg/ha): 0,0
- Prozentsatz der Sterilität ([1]; PRAG 109, 15 kg/ha): 100,0%
- Prozentsatz des Ansetzens von Körnern bei freier Bestäubung ([1]; PRAG 109, 15 kg/ha): 89,1%

SMILES: O=C(O)CCCCSCCCCC(=O)O [Beispiel 62, Natriumsalz der δ, δ'-Thiodivaleriansäure]
- Anzahl von Körnern der Ähre bei freier Bestäubung [1, 4]: 32,5
- Anzahl von Körnern der Ähre im Isolator [1, 4]: 0,9
- Prozentsatz der Sterilität [1, 4]: 97,2%
- Prozentsatz des Ansetzens von Körnern bei freier Bestäubung [1, 4]: 88,8%

SMILES: O=C(O)CCCCS(=O)(=O)CCCCC(=O)O [Beispiel 63, δ, δ' -Sulfonyldivaleriansäure]
- Anzahl von Körnern der Ähre bei freier Bestäubung [1, 4]: 30,1
- Anzahl von Körnern der Ähre im Isolator [1, 4]: 0,1
- Prozentsatz der Sterilität [1, 4]: 99,7%
- Prozentsatz des Ansetzens von Körnern bei freier Bestäubung [1, 4]: 82,2%

SMILES: O=C(O)CCCCS(=O)(=O)CCCCC(=O)O [Beispiel 64, Kaliumsalz der d , δ' -Sulfonyldivaleriansäure]
- Anzahl von Körnern der Ähre bei freier Bestäubung [1, 4]: 29,8
- Anzahl von Körnern der Ähre im Isolator [1, 4]: 0,0
- Prozentsatz der Sterilität [1, 4]: 100,0%
- Prozentsatz des Ansetzens von Körnern bei freier Bestäubung [1, 4]: 81,4%

SMILES: CCCCCCCCCCSCCCCC(=O)O [Beispiel 75, 4-Karboxybutyldezylsulfid]
- Prozentsatz der Sterilität [2, 5]: 100,0%
- Prozentsatz des Ansetzens von Achänen bei freier Bestäubung [2, 5]: 82,9%

SMILES: O=C(O)CCCCS(=O)(=O)CCCCC(=O)O [Beispiel 76, δ, δ' -Sulfonyldivaleriansäure]
- Prozentsatz der Sterilität [2, 5]: 100,0%
- Prozentsatz des Ansetzens von Achänen bei freier Bestäubung [2, 5]: 71,6%

SMILES: CCCCC(CC)COC(=O)CCCCSCCCCC(=O)OCC(CC)CCCC (stereo not drawn) [Beispiel 77, Bis(2-äthylhexyläther) der δ, δ' -Thiodivaleriansäure]
- Prozentsatz der Sterilität [2, 5]: 100,0%
- Prozentsatz des Ansetzens von Achänen bei freier Bestäubung [2, 5]: 82,1%

SMILES: CCCCC(CC)COC(=O)CCCCSCCCCC(=O)OCC(CC)CCCC (stereo not drawn) [Beispiel 78, Bis(2-äthylhexyläther) der δ δ' --Thiodivaleriansäure]
- Prozentsatz der Sterilität [2, 6]: 100,0%
- Prozentsatz des Ansetzens von Achänen bei freier Bestäubung [2, 6]: 60,7%

SMILES: CCCCOC(=O)CCCCSCCCCC(=O)OCCCC [Beispiel 79, Bis(di--n-butyläther) der δ, δ' -Thiodivaleriansäure]
- Prozentsatz der Sterilität [2, 6]: 100,0%
- Prozentsatz des Ansetzens von Achänen bei freier Bestäubung [2, 6]: 62,7%

SMILES: CCCCC(CC)COC(=O)CCCCSCCCCC(=O)OCC(CC)CCCC (stereo not drawn) [Beispiel 80, Bis(2-äthylhexyläther) der δ, δ' -Thirodivaleriansäure]
- Prozentsatz der Sterilität [2, 7]: 100,0%
- Prozentsatz des Ansetzens von Achänen bei freier Bestäubung [2, 7]: 67,9%

SMILES: CCCCOC(=O)CCCCSCCCCC(=O)OCCCC [Beispiel 81, Bis(di-n-butyläther) der δ, δ' -Thiodivaleriansäure]
- Prozentsatz der Sterilität [2, 7]: 100,0%
- Prozentsatz des Ansetzens von Achänen bei freier Bestäubung [2, 7]: 59,3%

SMILES: CCCCC(CC)COC(=O)CCCCSCCCCC(=O)OCC(CC)CCCC (stereo not drawn) [Bis (2-äthylhexyläther) der δ, δ'-Thiodivaleriansäure]
- LD50 [3]: > 2000 mg/kg
